The values that follow come from PMC5933747 (PLoS ONE, 2018).

pIC50: −log10 of the molar value. Like-named read-outs stand apart in the source and are kept apart here.

Type in all cases: cell-based
In assay [1] the target is human NaV1.7 (Homo sapiens, UniProt Q15858). The assay is described as follows: IonWorks Quattro (IWQ) electrophysiology, human NaV1.7. Background: In patch-clamp work, channel activity is measured electrically.
Assay [2] has as its target human NaV1.5 (Homo sapiens, UniProt Q14524). The assay is described as follows: IonWorks Quattro (IWQ) electrophysiology, human NaV1.5.
Assay [3] addresses human NaV1.4 (Homo sapiens, UniProt P35499). Put plainly: IonWorks Quattro (IWQ) electrophysiology, human NaV1.4.
[4] abbreviates: read-out: Glu mutant IWQ IC50 NaV1.7.
Setting [5] is: read-out: Glu mutant IWQ IC50 NaV1.5.
[6] abbreviates: read-out: Glu mutant IWQ IC50 NaV1.4.
Where [7] appears, read: read-out: Ala mutant IWQ IC50 NaV1.7.
Setting [8] is: read-out: Ala mutant IWQ IC50 NaV1.5.
Where [9] appears, read: read-out: Ala mutant IWQ IC50 NaV1.4.

Sequence of human NaV1.7 (Q15858 whole entry): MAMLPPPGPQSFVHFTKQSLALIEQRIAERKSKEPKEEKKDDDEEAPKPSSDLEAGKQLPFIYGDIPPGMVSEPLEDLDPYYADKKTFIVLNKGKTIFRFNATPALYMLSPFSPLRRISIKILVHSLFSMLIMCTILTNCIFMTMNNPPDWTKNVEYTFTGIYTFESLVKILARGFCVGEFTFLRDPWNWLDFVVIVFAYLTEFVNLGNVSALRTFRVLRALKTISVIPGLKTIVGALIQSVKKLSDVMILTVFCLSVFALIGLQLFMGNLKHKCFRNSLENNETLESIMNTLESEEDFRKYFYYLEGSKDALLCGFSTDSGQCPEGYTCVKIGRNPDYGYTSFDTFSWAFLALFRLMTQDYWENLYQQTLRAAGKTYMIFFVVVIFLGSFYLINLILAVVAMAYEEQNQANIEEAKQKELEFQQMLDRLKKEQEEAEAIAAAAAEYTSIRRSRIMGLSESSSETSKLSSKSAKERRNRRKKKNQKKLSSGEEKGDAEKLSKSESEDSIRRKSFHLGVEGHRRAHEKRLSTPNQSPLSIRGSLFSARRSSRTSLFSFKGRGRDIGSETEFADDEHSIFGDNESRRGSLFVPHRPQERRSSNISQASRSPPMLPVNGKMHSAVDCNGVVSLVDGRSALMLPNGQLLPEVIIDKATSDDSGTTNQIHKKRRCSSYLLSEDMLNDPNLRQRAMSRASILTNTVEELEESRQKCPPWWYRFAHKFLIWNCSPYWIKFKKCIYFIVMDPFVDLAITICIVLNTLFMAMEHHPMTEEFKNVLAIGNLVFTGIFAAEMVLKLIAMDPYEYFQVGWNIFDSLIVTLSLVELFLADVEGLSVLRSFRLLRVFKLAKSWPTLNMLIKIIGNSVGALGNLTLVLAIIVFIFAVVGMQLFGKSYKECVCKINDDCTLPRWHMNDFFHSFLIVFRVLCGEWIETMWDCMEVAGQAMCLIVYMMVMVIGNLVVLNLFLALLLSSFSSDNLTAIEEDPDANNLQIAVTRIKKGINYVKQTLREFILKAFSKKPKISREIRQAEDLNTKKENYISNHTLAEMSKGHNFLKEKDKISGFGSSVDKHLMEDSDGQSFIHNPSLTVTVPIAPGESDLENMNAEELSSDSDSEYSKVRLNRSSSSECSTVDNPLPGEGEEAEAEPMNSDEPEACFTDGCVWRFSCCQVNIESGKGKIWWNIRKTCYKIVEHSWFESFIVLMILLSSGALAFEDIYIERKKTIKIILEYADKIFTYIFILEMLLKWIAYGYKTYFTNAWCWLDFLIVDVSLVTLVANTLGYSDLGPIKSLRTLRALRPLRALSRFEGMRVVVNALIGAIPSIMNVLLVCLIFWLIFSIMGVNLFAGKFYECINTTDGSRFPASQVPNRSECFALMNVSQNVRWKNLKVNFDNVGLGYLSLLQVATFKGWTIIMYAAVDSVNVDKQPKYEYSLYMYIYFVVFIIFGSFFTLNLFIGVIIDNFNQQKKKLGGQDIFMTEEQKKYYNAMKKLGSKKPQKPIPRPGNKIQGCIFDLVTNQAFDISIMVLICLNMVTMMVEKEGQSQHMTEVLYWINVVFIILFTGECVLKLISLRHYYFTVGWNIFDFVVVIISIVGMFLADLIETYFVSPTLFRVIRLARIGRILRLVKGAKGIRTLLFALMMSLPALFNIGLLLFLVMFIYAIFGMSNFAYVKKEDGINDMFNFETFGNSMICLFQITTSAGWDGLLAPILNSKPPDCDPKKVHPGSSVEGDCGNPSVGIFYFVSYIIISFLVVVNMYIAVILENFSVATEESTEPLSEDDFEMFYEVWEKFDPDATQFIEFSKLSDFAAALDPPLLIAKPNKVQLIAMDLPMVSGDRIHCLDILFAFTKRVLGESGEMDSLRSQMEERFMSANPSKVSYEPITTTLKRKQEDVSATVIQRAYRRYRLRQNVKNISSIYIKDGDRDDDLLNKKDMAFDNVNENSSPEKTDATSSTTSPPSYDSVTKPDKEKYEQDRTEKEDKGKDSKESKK
Sequence of human NaV1.4 (P35499 whole entry): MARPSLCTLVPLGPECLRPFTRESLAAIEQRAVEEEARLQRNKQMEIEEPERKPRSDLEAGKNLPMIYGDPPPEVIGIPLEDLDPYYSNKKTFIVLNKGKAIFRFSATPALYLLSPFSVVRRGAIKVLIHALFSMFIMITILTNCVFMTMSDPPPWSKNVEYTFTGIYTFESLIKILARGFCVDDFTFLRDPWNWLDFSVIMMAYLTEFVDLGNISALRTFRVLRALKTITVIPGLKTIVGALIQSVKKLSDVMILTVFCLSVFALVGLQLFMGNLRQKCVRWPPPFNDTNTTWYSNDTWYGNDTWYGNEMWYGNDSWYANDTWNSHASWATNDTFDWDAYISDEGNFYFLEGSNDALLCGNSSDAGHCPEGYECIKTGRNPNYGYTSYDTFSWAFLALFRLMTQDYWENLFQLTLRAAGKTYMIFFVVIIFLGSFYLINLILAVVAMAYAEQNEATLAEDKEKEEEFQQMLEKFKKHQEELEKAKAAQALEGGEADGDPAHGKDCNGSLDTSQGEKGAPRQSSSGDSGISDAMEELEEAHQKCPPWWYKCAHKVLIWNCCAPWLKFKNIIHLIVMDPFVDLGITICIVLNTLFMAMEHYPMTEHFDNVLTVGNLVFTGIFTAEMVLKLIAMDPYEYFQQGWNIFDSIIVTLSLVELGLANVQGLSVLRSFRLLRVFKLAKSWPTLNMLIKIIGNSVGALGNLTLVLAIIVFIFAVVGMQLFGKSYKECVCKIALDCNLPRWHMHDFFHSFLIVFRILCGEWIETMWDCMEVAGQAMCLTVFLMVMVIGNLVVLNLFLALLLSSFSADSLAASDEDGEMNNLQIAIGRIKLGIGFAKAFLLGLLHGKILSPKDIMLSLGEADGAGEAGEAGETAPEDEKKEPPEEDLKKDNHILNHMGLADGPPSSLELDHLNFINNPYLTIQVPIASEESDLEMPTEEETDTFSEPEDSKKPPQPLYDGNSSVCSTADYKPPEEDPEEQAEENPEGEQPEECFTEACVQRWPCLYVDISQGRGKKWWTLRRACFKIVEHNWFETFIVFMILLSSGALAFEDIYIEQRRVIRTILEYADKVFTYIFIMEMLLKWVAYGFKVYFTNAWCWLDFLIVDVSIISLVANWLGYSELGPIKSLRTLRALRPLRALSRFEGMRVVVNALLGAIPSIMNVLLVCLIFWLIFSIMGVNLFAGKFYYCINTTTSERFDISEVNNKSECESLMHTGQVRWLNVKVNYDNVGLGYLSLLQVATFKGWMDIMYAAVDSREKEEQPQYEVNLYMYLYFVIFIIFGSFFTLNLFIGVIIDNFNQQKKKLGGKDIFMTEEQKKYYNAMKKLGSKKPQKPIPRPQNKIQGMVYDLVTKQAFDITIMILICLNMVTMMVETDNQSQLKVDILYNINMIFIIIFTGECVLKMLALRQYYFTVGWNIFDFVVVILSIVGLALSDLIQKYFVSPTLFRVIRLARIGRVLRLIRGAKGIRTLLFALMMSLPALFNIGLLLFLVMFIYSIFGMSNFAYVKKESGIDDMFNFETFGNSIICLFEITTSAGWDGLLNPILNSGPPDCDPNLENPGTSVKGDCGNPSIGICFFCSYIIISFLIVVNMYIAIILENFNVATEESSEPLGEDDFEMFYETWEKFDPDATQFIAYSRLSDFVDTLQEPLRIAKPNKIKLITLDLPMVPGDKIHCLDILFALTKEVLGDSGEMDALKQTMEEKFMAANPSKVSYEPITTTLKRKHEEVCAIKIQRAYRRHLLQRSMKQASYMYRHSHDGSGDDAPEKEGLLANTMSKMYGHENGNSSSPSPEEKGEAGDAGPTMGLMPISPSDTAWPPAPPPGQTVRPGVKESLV

In the case of `CC[C@H](C)[C@H](NC(=O)[C@@H](NC(=O)[C@H](CCCCN)NC(=O)[C@H](CCCNC(=N)N)NC(=O)[C@@H]1CSSC[C@@H]2NC(=O)[C@H](C)NC(=O)[C@H](CCC(=O)O)NC(=O)[C@H](CCCCN)NC(=O)[C@H](CO)NC(=O)[C@H](CC(=O)O)NC(=O)[C@@H]3CSSC[C@H](NC(=O)[C@H](CCCNC(=N)N)NC(=O)[C@H](CC(C)C)NC(=O)CNC(=O)[C@H](CCC(=O)O)NC(=O)[C@H](CSSC[C@H](NC(=O)[C@@H](N)Cc4ccc(O)cc4)C(=O)N[C@@H](CCC(N)=O)C(=O)N[C@@H](CCCCN)C(=O)N[C@@H](Cc4c[nH]c5ccccc45)C(=O)N[C@@H](CCSC)C(=O)N[C@@H](Cc4c[nH]c5ccccc45)C(=O)N[C@@H]([C@@H](C)O)C(=O)N3)NC2=O)C(=O)N[C@@H](CCCCN)C(=O)N[C@@H](CC(C)C)C(=O)N[C@@H](Cc2c[nH]c3ccccc23)C(=O)N1)[C@@H](C)CC)C(N)=O` [R13 Glu mutant], the pIC50 (in general, the negative decadic logarithm of the IC50, by convention in mol/L) is 5.34 in assay [1] (setting [4]), less than 5.00 in assay [2] (setting [5]) and less than 5.00 in assay [3] (setting [6]).

On to `CC[C@H](C)[C@H](NC(=O)[C@@H](NC(=O)[C@H](CCCCN)NC(=O)[C@H](CCCNC(=N)N)NC(=O)[C@@H]1CSSC[C@@H]2NC(=O)[C@H](C)NC(=O)[C@H](CCCNC(=N)N)NC(=O)[C@H](CCCCN)NC(=O)[C@H](CO)NC(=O)[C@H](CC(=O)O)NC(=O)[C@@H]3CSSC[C@H](NC(=O)[C@H](CCCNC(=N)N)NC(=O)[C@H](CC(C)C)NC(=O)CNC(=O)[C@H](CCC(=O)O)NC(=O)[C@H](CSSC[C@H](NC(=O)[C@@H](N)Cc4ccc(O)cc4)C(=O)N[C@@H](C)C(=O)N[C@@H](CCCCN)C(=O)N[C@@H](Cc4c[nH]c5ccccc45)C(=O)N[C@@H](CCSC)C(=O)N[C@@H](Cc4c[nH]c5ccccc45)C(=O)N[C@@H]([C@@H](C)O)C(=O)N3)NC2=O)C(=O)N[C@@H](CCCCN)C(=O)N[C@@H](CC(C)C)C(=O)N[C@@H](Cc2c[nH]c3ccccc23)C(=O)N1)[C@@H](C)CC)C(N)=O` [Q3 Ala mutant], for which the figures for the pIC50 in assay [1] (setting [7]), in assay [2] (setting [8]) and in assay [3] (setting [9]) were 6.42, less than 5.00 and 5.94, respectively.

`CC[C@H](C)[C@H](NC(=O)[C@@H](NC(=O)[C@H](CCCCN)NC(=O)[C@H](C)NC(=O)[C@@H]1CSSC[C@@H]2NC(=O)[C@H](C)NC(=O)[C@H](CCCNC(=N)N)NC(=O)[C@H](CCCCN)NC(=O)[C@H](CO)NC(=O)[C@H](CC(=O)O)NC(=O)[C@@H]3CSSC[C@H](NC(=O)[C@H](CCCNC(=N)N)NC(=O)[C@H](CC(C)C)NC(=O)CNC(=O)[C@H](CCC(=O)O)NC(=O)[C@H](CSSC[C@H](NC(=O)[C@@H](N)Cc4ccc(O)cc4)C(=O)N[C@@H](CCC(N)=O)C(=O)N[C@@H](CCCCN)C(=O)N[C@@H](Cc4c[nH]c5ccccc45)C(=O)N[C@@H](CCSC)C(=O)N[C@@H](Cc4c[nH]c5ccccc45)C(=O)N[C@@H]([C@@H](C)O)C(=O)N3)NC2=O)C(=O)N[C@@H](CCCCN)C(=O)N[C@@H](CC(C)C)C(=O)N[C@@H](Cc2c[nH]c3ccccc23)C(=O)N1)[C@@H](C)CC)C(N)=O` [R26 Ala mutant]: the pIC50 is 5.62 in assay [1] (setting [7]), less than 5.00 in assay [2] (setting [8]) and less than 5.00 in assay [3] (setting [9]).

Take `CC[C@H](C)[C@H](NC(=O)[C@@H](NC(=O)[C@H](CCCCN)NC(=O)[C@H](CCCNC(=N)N)NC(=O)[C@@H]1CSSC[C@@H]2NC(=O)[C@H](C)NC(=O)[C@H](CCCNC(=N)N)NC(=O)[C@H](CCCCN)NC(=O)[C@H](CO)NC(=O)[C@H](CC(=O)O)NC(=O)[C@@H]3CSSC[C@H](NC(=O)[C@H](CCCNC(=N)N)NC(=O)[C@H](CCC(=O)O)NC(=O)CNC(=O)[C@H](CCC(=O)O)NC(=O)[C@H](CSSC[C@H](NC(=O)[C@@H](N)Cc4ccc(O)cc4)C(=O)N[C@@H](CCC(N)=O)C(=O)N[C@@H](CCCCN)C(=O)N[C@@H](Cc4c[nH]c5ccccc45)C(=O)N[C@@H](CCSC)C(=O)N[C@@H](Cc4c[nH]c5ccccc45)C(=O)N[C@@H]([C@@H](C)O)C(=O)N3)NC2=O)C(=O)N[C@@H](CCCCN)C(=O)N[C@@H](CC(C)C)C(=O)N[C@@H](Cc2c[nH]c3ccccc23)C(=O)N1)[C@@H](C)CC)C(N)=O` [L19 Glu mutant]: the pIC50 in assay [1] (setting [4]), in assay [2] (setting [5]) and in assay [3] (setting [6]) was less than 5.00 each time.
